{"source": "patent US11078236B2", "about": "“Selenium-based therapies” (Burke Neurological Institute, priority 2017, dated 2021)", "key": {"[1]": {"system": "GPX4 and other selenoprotein genes", "assay": "Quantitative PCR of antioxidant/selenoprotein genes in neurons", "assay_type": "cell-based, mice or rats", "experimental": "(§1) Total RNA was prepared using the NucleoSpin RNA II kit (MACHEREYNAGEL) according to the manufacturer's protocol. Duplex real-time PCR reactions were performed with gene expression assays using 6-carboxyfluorescein-labeled probes (Applied Biosystems) for antioxidant enzymes. All expression levels were normalized to β-actin gene expression levels, which were determined with a VIC-labeled probe (Applied Biosystems). All experiments were performed using a Quant 6 Real-Time PCR System (Applied Biosystems).\n(§2) Primary cortical neurons were obtained from either embryonic (E15) CD1 mice or embryonic (E17) Sprague-Dawley rats. Briefly, cortices were dissected, homogenized, and plated in minimum essential medium containing 10% fetal bovine serum (FBS), 5% horse serum, and 1% penicillin/streptomycin in 96-well plates, 6-well plates, or 10-cm dishes. Neurons were maintained at 37° C. with 5% CO2. All experiments were started at 24 hours after plating."}, "GPX4-deficient neurons": {"system": "GPX4-deficient neurons", "assay": "Survival of neurons with siRNA knockdown of GPX4", "assay_type": "cell-based, mice or rats", "settings": "50 μM NAC, siGPX4", "from_the_text": "Knock down of GPX4 was achieved by using lipofectamine RNAimax (Thermo-Fisher) to transfect primary cortical neurons with specific siRNA against GPX4. Three different sequences of siRNA were used separately to validate target specificity as opposed to sequence specificity. Knockdown was validated by mRNA and protein."}, "primary cortical neurons [2]": {"system": "primary cortical neurons", "assay": "In vitro ICH model: hemin-induced ferroptosis, MTT survival and Live/Dead assay", "assay_type": "cell-based, mice or rats", "settings": "for toxicity / therapeutic window in cultured neurons: in vitro, increasing concentrations", "experimental": "as §2\nCell death was induced in primary cortical neurons and hippocampal HT22 cells by treatment with hemin ([…]; Sigma). For the neuroprotection studies, cells were treated with 80 μM hemin in the presence of sodium selenite (Sigma) diluted in water. Cell viability was analyzed 16 hours after treatment. Cells were rinsed with warm phosphate-buffered saline (PBS) and assessed by MTT assay. The fidelity of MTT assays in measuring viability was verified by calcein-AM/ethidium homodimer-1 staining (Live/Dead assay, Molecular Probes) following the manufacturer's instructions."}, "[3]": {"system": "GPX4 and selenoprotein mRNA in striatum", "assay_type": "in vivo, mouse", "settings": "ICV injection", "experimental": "FIG. 5A is a schematic showing ICV injection of dose dependent Se (1-5 μM) and collection of striatum 6 hours later to extract RNA for quantitative PCR.\nMale C57BL/6 mice (8 to 10 weeks of age; Charles River) were anesthetized with isoflurane (2 to 5%) and placed on a stereotaxic frame. During the procedure, the animal's body temperature was maintained at 37° C. with a homeothermic blanket. With a nanomite syringe pump (Harvard Apparatus) and a Hamilton syringe, […] of collagenase (0.075 IU; Sigma) was infused into the right striatum at a flow rate of 0.120 ml/min. Relative to the bregma point, the stereotaxic coordinates of the injection were as follows: lateral, −0.20; anteroposterior, 0.62; and dorsoventral, −0.40. In control animals, […] of saline was infused. The treatment group received sodium selenite (1-5 μM) 2 hours after collagenase infusion directly into the ventricals. The control groups received vehicle (saline) alone. The animals were randomized to sham or ICH groups. The identity of the mice that received vehicle or Se was masked to surgeons who performed the ICH. […]\nTotal RNA was prepared using the NucleoSpin RNA II kit (MACHEREYNAGEL) according to the manufacturer's protocol. […] All expression levels were normalized to β-actin gene expression levels, which were determined with a VIC-labeled probe (Applied Biosystems). […]"}, "[4]": {"assay": "ICP-MS measurement of selenium levels", "parameters": "species or system mouse", "settings": "in vitro and in vivo after Se treatment", "experimental": "FIG. 2M is a graph showing inductively coupled mass spectrometry (ICP-MS) measurement of selenium levels normalized to protein concentration in cortical neurons treated with 80 μM hemin and/or Se.\nFIG. 5D is a graph showing inductively coupled mass spectrometry (ICP-MS) measurement of selenium levels normalized to protein concentration following ICH and ICH+2.5 μM Se in striatum at 24 h post treatment (n=8)."}, "primary cortical neurons [5]": {"system": "primary cortical neurons", "assay": "Oxidative stress-induced neuronal death: HCA-induced ferroptosis, MTT survival", "assay_type": "cell-based, mice or rats", "settings": "HCA 5 mM, survival at 24 h", "experimental": "as §2\nPrimary cortical neurons and HT22 cells were exposed to 5 mM HCA (glutamate structural analog) to induce oxidative stress-induced cell death, and sodium selenite (Sigma) was applied in media. 24 hours after treatment with HCA, the cells were rinsed with warm PBS, and cell viability was assessed by MTT assay (Life Technologies) and calcein-AM/ethidium homodimer-1 staining (Live/Dead assay, Molecular Probes)."}, "[6]": {"system": "collagenase mouse model of ICH", "assay": "Collagenase-induced mouse model of ICH: behavior, fluorojade, immunofluorescence", "assay_type": "in vivo", "experimental": "Male C57BL/6 mice (8 to 10 weeks of age; Charles River) were anesthetized with isoflurane (2 to 5%) and placed on a stereotaxic frame. During the procedure, the animal's body temperature was maintained at 37° C. with a homeothermic blanket. With a nanomite syringe pump (Harvard Apparatus) and a Hamilton syringe, […] of collagenase (0.075 IU; Sigma) was infused into the right striatum at a flow rate of 0.120 ml/min. Relative to the bregma point, the stereotaxic coordinates of the injection were as follows: lateral, −0.20; anteroposterior, 0.62; and dorsoventral, −0.40. In control animals, […] of saline was infused. […] The control groups received vehicle (saline) alone. The animals were randomized to sham or ICH groups. The identity of the mice that received vehicle or Se was masked to surgeons who performed the ICH. […] Proper postoperative care was taken until the animals recovered completely.\nThe corner task assessed the integrated sensorimotor function in both stimulation of vibrissae (sensory neglect) and rearing (motor response) (See Schallert et al., Neuropharmacology 39(5): p. 777-87 (2000)). Mice were placed between two cardboard pieces forming a corner with a 30° angle. While maintaining the 30° angle, the boards were gradually moved toward the mouse until the mouse approached the corner, reared upward, and turned 180° to face the open end. The direction (left or right) in which the mouse turned around was recorded for each trial. Ten trials were performed for each mouse. The adhesive tape removal task in mice was performed as previously described. Briefly, adhesive tape was placed on the planter region of the forward paw (right and left) of mice. The time from which the tape was applied to when the mouse successfully removed it was recorded for each paw. A maximum of 300 s for each paw was allowed.\nFor immunocytochemical experiments in the brain, three control mice with induced unilateral stroke and three selenium-treated mice with induced unilateral stroke were perfusion fixed with 4% PFA in PBS for 15 min. The brains were isolated and postfixed for 1 h in 4% PFA. After cryoprotection in a sucrose gradient, brain sections were cut at 30 μm.\nFree-floating brain sections were blocked for 1 h in a PBS solution containing 3% bovine serum (Sigma), and 0.5% Triton X-100 (Biorad). Primary antibodies were diluted in the same solution and applied for 12 h, followed by incubation for 1 h with the appropriate secondary antibody, conjugated to Alexa 488 (1:1000; green fluorescence, Molecular Probes) or Alexa 568 (1:1000; red fluorescence, Molecular Probes). For nuclear labeling, ToPro was added to the mixture (1:15000, far red fluorescence, Invitrogen, T3605). […]"}, "GPX4 mRNA": {"system": "GPX4 mRNA", "assay": "GPX4 mRNA in organs after intraperitoneal injection of peptides", "assay_type": "in vivo, mouse", "settings": "12 μg/g intraperitoneal, 24 h", "experimental": "FIG. 69B quantifies GPX4 mRNA levels 24 h following IP injection of SelPep (4-12 μg/g; n=3) in the striatum, cortex, heart or liver.\nas §1"}, "[7]": {"settings": "12 μg/g IP from 2 h post-ICH, daily for 7 days, from day 3, significant by day 14"}}, "note": "“Also recorded” adds a separate entry of the source. Starred links: 1 amine or outer side, 2 acyl side, 3 side chain; linkers in the order of their positions; H or OH if unused. Positions of bridges follow the written chain, without caps; N, C: chain ends. Non-standard residues stand in square brackets, D forms with d. Residues, ends and D or L forms follow the SMILES beside them. Chains are numbered I, II in the order given. Actinocin(9to1) = Cc1c2oc3c(C)ccc(C(=O)[*:1])c3nc-2c(C(=O)[*:2])c(N)c1=O; NMeV = CN[C@H](C(=O)O)C(C)C; Sec = N[C@@H](C[SeH])C(=O)O; Sar = CNCC(=O)O", "data": [{"molecule": "CC(=O)N[C@@H](CS)C(=O)O", "note": "[NAC, N-acetylcysteine]", "values": [{"measurement": "effect on GPX4 expression", "setting": "[1]; 50 μM NAC", "value": "no effect on GPX4 mRNA levels; also recorded: without affecting GPX4 expression"}, {"measurement": "survival of GPX4-deficient neurons", "setting": "GPX4-deficient neurons", "value": "prevents cell death due to GPX4 molecular depletion; also recorded: protected GPX4-deficient neurons; also recorded: prevents cell death due to GPX4 knockdown"}]}, {"molecule": "O=[Se](O)O", "note": "[Se, Sodium selenite]", "values": [{"measurement": "toxicity / therapeutic window in cultured neurons", "setting": "primary cortical neurons [2]", "value": "parabolic dose response with a narrow therapeutic window"}, {"measurement": "toxicity or death in mice", "setting": "[3]; any concentration (1-5 μM)", "value": "no toxicity or death"}, {"measurement": "optimal Se concentration for inducing selenoprotein expression", "setting": "[3]; uninjured mice, striatum 6 h later", "value": 2.5, "unit": "µM"}, {"measurement": "selenium levels by ICP-MS", "setting": "[4]", "value": "significant increases in cellular selenium"}]}, {"molecule": "CC(C)C[C@H](NC(=O)[C@H](CC(N)=O)NC(=O)[C@H](C[SeH])NC(=O)[C@H](CCCCN)NC(=O)[C@H](C[SeH])NC(=O)[C@H](CCCCN)NC(=O)[C@H](CCCNC(=N)N)NC(=O)[C@H](CCCNC(=N)N)NC(=O)[C@H](CCCNC(=N)N)NC(=O)[C@H](CCC(N)=O)NC(=O)[C@H](CCCNC(=N)N)NC(=O)[C@H](CCCNC(=N)N)NC(=O)[C@H](CCCCN)NC(=O)[C@H](CCCCN)NC(=O)[C@H](CCCNC(=N)N)NC(=O)CNC(=O)[C@@H](N)Cc1ccc(O)cc1)C(=O)N[C@@H](CC(N)=O)C(N)=O", "note": "[Tat-SelPep] (H-YGRKKRRQRRRK[Sec]K[Sec]NLN-NH2)", "values": [{"measurement": "single cell analysis of cell viability and death (live/dead)", "setting": "primary cortical neurons [2]; hemin 80 μM, 16 h, 1 μM peptide", "value": "prevented hemin induced ferroptosis and completely preserved cell bodies and neurites of neurons"}, {"measurement": "protection from hemin-induced ferroptosis", "setting": "primary cortical neurons [2]; hemin 80 μM, survival at 16 h, MTT", "value": "concentration dependent protection"}, {"measurement": "toxicity / therapeutic window in cultured neurons", "setting": "primary cortical neurons [2]", "value": "wide therapeutic window with no apparent toxicity"}, {"measurement": "protection from HCA-induced ferroptosis", "setting": "primary cortical neurons [5]", "value": "concentration dependent protection"}, {"measurement": "GPX4, SeIP, TXNRD1, GPX3 and SelK mRNA", "setting": "[1]; 1 μM peptide, 6 h post-treatment", "value": "induced significant increases"}, {"measurement": "cell death measured by Fluoro-Jade staining", "setting": "[6]; 12 μg/g IP from 2 h post-ICH, daily for 7 days", "value": "reduced cell death"}, {"measurement": "sensory neglect task", "setting": "[6]; [7]", "value": "improved"}, {"measurement": "spatial neglect task", "setting": "[6]; [7]", "value": "improved"}, {"measurement": "behavior outcomes in animals overexpressing mSp1", "setting": "[6]; AAV8-mSp1 in striatum, 12 μg/g IP, day 14 post-stroke", "value": "fail to demonstrate significant behavior improvements"}, {"measurement": "GPX4 expression in heart, liver, striatum and cortex", "setting": "GPX4 mRNA", "value": "induced significant expression of GPX4"}]}, {"molecule": "Cc1c2oc3c(C)ccc(C(=O)N[C@@H]4C(=O)N[C@H](C(C)C)C(=O)N5CCC[C@H]5C(=O)N(C)CC(=O)N(C)[C@@H](C(C)C)C(=O)O[C@@H]4C)c3nc-2c(C(=O)N[C@@H]2C(=O)N[C@H](C(C)C)C(=O)N3CCC[C@H]3C(=O)N(C)CC(=O)N(C)[C@@H](C(C)C)C(=O)O[C@@H]2C)c(N)c1=O", "note": "[actinomycin-D] (I: T[dV]P[Sar][NMeV] / II: T[dV]P[Sar][NMeV]; ester I:1-I:C, II:1-II:C; linker I:N-II:N via Actinocin(9to1))", "values": [{"measurement": "protection against hemin toxicity induced by Se", "setting": "primary cortical neurons [2]; co-treatment with transcription inhibitor, MTT", "value": "abrogated protection; also recorded: abolished protection against hemin toxicity"}, {"measurement": "Se-dependent increase in GPX4 mRNA", "setting": "[1]; co-treatment with transcription inhibitor", "value": "inhibited Se-dependent increase in GPX4 mRNA"}]}]}
